According to patent US20170058288A1, “OSNF-YA7 GENE FOR INCREASING DROUGHT STRESS RESISTANCE OF PLANT AND USE THEREOF” (SNU R&DB FOUNDATION, priority 2014, published 2017):

What was measured:
[1] = system: OsNF-YA7; test: OsNF-YA7 gene expression in response to ABA treatment (qRT-PCR); type: in vivo, rice (Oryza sativa); conditions: short-term treatment (24 hours) with 10 and 100 μM ABA, NT rice plant, compared to untreated control group
Procedure: (§1) To analyze expression patterns of OsNF-YA4 and OsNF-YA7 gene in response to abiotic stress, non-transgenic rice plants (NT plants; breed—“Nakdong”) were grown in soil for 4 week in green house. The whole plant of a 4-week old non-transgenic plant was air-dried for 3 hrs for drought stress treatment. For the treatment of salt stress, whole plants were transferred to a solution containing 200 mM of NaCl and kept for 24 hours. For the treatment of low temperature stress, whole plants were transferred to a 4° C. low temperature chamber and kept for 24 hrs. For the analysis of OsNF-YA4 and OsNF-YA7 gene expression pattern in response to ABA, NT plant were grown in MS media for 2 week in growth chamber. For the short-term treatment with ABA, the whole plants were transferred to a solution containing 10 or 100 μM ABA and treated with the solution for 24 hours. For the long-term treatment with ABA, NT plant seeds were planted and grown on MS media supplemented with 0, 0.5, 1 or 3 μM of ABA for 2 weeks.
(§2) Leaf and root tissues of a plant which has been treated with either abiotic stress or absicic acid were collected and frozen. […] To analyze the gene expression level, quantitative PCR was carried out by using Mx3000p real-time PCR machine and Platinum® SYBR® Green qPCR SuperMix-UDG system (Invitrogen, USA). […]

[2] = system: OsNF-YA4; test: OsNF-YA4 gene expression in response to ABA treatment (qRT-PCR); type: in vivo, rice (Oryza sativa); conditions: short-term treatment (24 hours) with 10 and 100 μM ABA, NT rice plant, compared to untreated control group
Procedure: as §1, §2

Which “decrease in OsNF-YA7 expression level” value [1] does the source give for `CC1=CC(=O)CC(C)(C)[C@@]1(O)/C=C/C(C)=C\C(=O)O` [ABA, Abscisic acid] here?
The value was “approximately 30%”.

And the “increase in OsNF-YA4 expression level” value [2]?
Its value is 4 fold.
